Source: US12161676B2, “Methods of use of islet cells” (CEDARS-SINAI MEDICAL CENTER, priority 2018, dated 2024)

Tested on: endocrine progenitors
Assay: Differentiation of iPSC-derived endocrine progenitors towards immature beta cells, marker expression with tested reagent combinations
Type: cell-based, human
Details: addition of the reagent during differentiation of endocrine progenitors into beta cells
Method: FIG. 31. Expression of DAPI, C-Peptide, Glucagon and NKX6.1 when testing various compounds at day 23.
FIG. 32. Measurement of DAPI, C-Peptide, Glucagon and NKX6.1 expression across tested compound combinations.
To further differentiate endocrine progenitors into beta cells, various reagents were tested to determine which combinations are most efficient in generating immature beta cells. T3 was selected for its role in beta cell survival, function, and identity Alk5 inhibitor II was selected for its specificity in inhibition of TGF beta receptor 1. XXI was selected as Notch inhibitor to exit cell cycle and as a driving force between endocrine vs duct phenotypes. Noggin is selected for BMP inhibition due to evidence that inhibition of this pathway is important for endocrine differentiation. Addition of notch inhibitor XXI reduced NKX6.1 levels and increased glucagon levels. […] The aforementioned growth factors can be used in combination for immature beta cell production. Thereafter, there is a need for a maturation step to induce glucose sensitivity on immature induced-islet cells

Row | Molecule | NKX6.1 levels | glucagon levels | c-peptide levels
1 | C[C@H](NC(=O)Cc1cc(F)cc(F)c1)C(=O)N[C@H]1N=C(c2ccccc2)c2ccccc2N(C)C1=O [XXI] | reduced | increased | 
2 | noggin |  |  | slightly increases
